Data published in PubChem BioAssay (NCI).
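Grown in 96-well plates, cells were treated for 48 hours with each compound at five concentrations. Insufficient inhibition: endpoint recorded as highest concentration tested. The concentration for 50% growth inhibition is given as GI50. TGI: concentration producing complete growth inhibition.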

Columns and labels:
Experiment in all cases: NCI anticancer screen, dose series, 48 h
[1] = system: 786-0 renal
[2] = system: A498 renal
[3] = system: A549 NSCLC
[4] = system: ACHN renal
[5] = system: BT-549 breast
[6] = system: CAKI-1 renal
[7] = system: CCRF-CEM leukemia
[8] = system: COLO 205 colon
[9] = system: DU-145 prostate
[10] = system: EKVX NSCLC
[11] = system: HCC-2998 colon
[12] = system: HCT-116 colon
[13] = system: HCT-15 colon
[14] = system: HL-60(TB) leukemia
[15] = system: HOP-62 NSCLC
[16] = system: HOP-92 NSCLC
[17] = system: HS 578T breast
[18] = system: HT29 colon
[19] = system: IGROV1 ovarian
[20] = system: K-562 leukemia
[21] = system: KM12 colon
[22] = system: LOX IMVI melanoma
[23] = system: M14 melanoma
[24] = system: MALME-3M melanoma
[25] = system: MCF7 breast
[26] = system: MDA-MB-231 breast
[27] = system: MDA-MB-435
[28] = system: MDA-N
[29] = system: MOLT-4 leukemia
[30] = system: NCI-H226 lung
[31] = system: NCI-H23 lung
[32] = system: NCI-H460 lung
[33] = system: NCI-H522 lung
[34] = system: NCI/ADR-RES ovarian
[35] = system: OVCAR-3 ovarian
[36] = system: OVCAR-4 ovarian
[37] = system: OVCAR-5 ovarian
[38] = system: OVCAR-8 ovarian
[39] = system: PC-3 prostate
[40] = system: RPMI-8226 leukemia
[41] = system: RXF 393 renal
[42] = system: SF-268 CNS
[43] = system: SF-295 CNS
[44] = system: SF-539 CNS
[45] = system: SK-MEL-2 melanoma
[46] = system: SK-MEL-28 melanoma
[47] = system: SK-MEL-5 melanoma
[48] = system: SK-OV-3 ovarian
[49] = system: SN12C renal
[50] = system: SNB-19 CNS
[51] = system: SNB-75 CNS
[52] = system: SR leukemia
[53] = system: SW-620 colon
[54] = system: T-47D breast
[55] = system: TK-10 renal
[56] = system: U251 CNS
[57] = system: UACC-257 melanoma
[58] = system: UACC-62 melanoma
[59] = system: UO-31 renal

## COc1ccccc1-c1cc2c3c(nc4ccccc42)C(=O)c2cccnc2-c3n1
[1]
  GI50: 15.5 µM
  TGI: 29.7 µM
[2]
  GI50: 18.9 µM
  TGI: 47.4 µM
[3]
  GI50: 10 µM
  TGI: 24 µM
[4]
  GI50: 13.7 µM
  TGI: 30.1 µM
[5]
  GI50: 13.3 µM
  TGI: 18.1 µM
[6]
  GI50: 13 µM
  TGI: 27.2 µM
[7]
  GI50: 4.94 µM
  TGI: > 100 µM
[8]
  GI50: 20.9 µM
  TGI: 55.1 µM
[9]
  GI50: 13.8 µM
  TGI: 28.5 µM
[10]
  GI50: 14.8 µM
  TGI: 45.4 µM
[11]
  GI50: 14.8 µM
  TGI: 30.6 µM
[12]
  GI50: 4.89 µM
  TGI: 14.6 µM
[13]
  GI50: 3.55 µM
  TGI: 8.62 µM
[14]
  GI50: > 100 µM
  TGI: > 100 µM
[15]
  GI50: 14.4 µM
  TGI: 48.2 µM
[16]
  GI50: 19.1 µM
  TGI: > 100 µM
[17]
  GI50: 17.9 µM
  TGI: 37.9 µM
[18]
  GI50: 15.3 µM
  TGI: 29.9 µM
[19]
  GI50: 3.78 µM
  TGI: 18.1 µM
[20]
  GI50: > 19.6 µM
  TGI: > 100 µM
[21]
  GI50: 9.88 µM
  TGI: 33.2 µM
[22]
  GI50: 2.13 µM
  TGI: 4.89 µM
[23]
  GI50: 5.1 µM
  TGI: 17.3 µM
[24]
  GI50: 15.4 µM
  TGI: 28.7 µM
[25]
  GI50: 1.44 µM
  TGI: 3.95 µM
[26]
  GI50: 18.2 µM
  TGI: > 56.7 µM
[27]
  GI50: 12.5 µM
  TGI: 33.3 µM
[28]
  GI50: 14.9 µM
  TGI: 28.5 µM
[29]
  GI50: > 42.6 µM
  TGI: > 100 µM
[30]
  GI50: 15.3 µM
  TGI: 33 µM
[31]
  GI50: 9.06 µM
  TGI: 25.3 µM
[32]
  GI50: 11.5 µM
  TGI: 26 µM
[33]
  GI50: 1.65 µM
  TGI: 5.23 µM
[34]
  GI50: 7.11 µM
  TGI: 32.6 µM
[35]
  GI50: 1.56 µM
  TGI: > 37.5 µM
[36]
  GI50: 13.5 µM
  TGI: 38.7 µM
[37]
  GI50: 15 µM
  TGI: 34 µM
[38]
  GI50: 8.01 µM
  TGI: 28.6 µM
[39]
  GI50: 14.9 µM
  TGI: 38.2 µM
[40]
  GI50: 34.6 µM
  TGI: > 100 µM
[41]
  GI50: 16.7 µM
  TGI: 46.8 µM
[42]
  GI50: 17.6 µM
  TGI: 38.9 µM
[43]
  GI50: 17.4 µM
  TGI: 50.8 µM
[44]
  GI50: 14.8 µM
  TGI: 35.4 µM
[45]
  GI50: 17.5 µM
  TGI: 47.8 µM
[46]
  GI50: 18.4 µM
  TGI: 34.7 µM
[47]
  GI50: 12.5 µM
  TGI: 25.4 µM
[48]
  GI50: 20.8 µM
  TGI: 51.2 µM
[49]
  GI50: 14.5 µM
  TGI: 30.1 µM
[50]
  GI50: 17.4 µM
  TGI: 33.8 µM
[51]
  GI50: 8.89 µM
  TGI: 22.6 µM
[52]
  GI50: > 100 µM
  TGI: > 100 µM
[53]
  GI50: 9.58 µM
  TGI: 27.3 µM
[54]
  GI50: 9.08 µM
  TGI: > 94.6 µM
[55]
  GI50: 14.8 µM
  TGI: 29.6 µM
[56]
  GI50: 3.77 µM
  TGI: 11.4 µM
[57]
  GI50: 7.22 µM
  TGI: 22.8 µM
[58]
  GI50: 16.4 µM
  TGI: 36.7 µM
[59]
  GI50: 11.1 µM
  TGI: 23.3 µM
